# Results as given in patent publication US7323458B1, “Dihydrobenzodiazepins and their use for treating dyslipidemia” (Merck Patent Gesellschaft Mit Beschrankter Haftung, priority 1999, dated 2008).
# Legend:
# secretion of apo CIII = experiment: Reduction of apo CIII secretion by Hep G2 human hepatocytes in culture (ELISA); format: cell-based; details: HepG2, Hep G2 cells, 24 hours incubation, read-out: concentration which gives a 50% inhibition of the secretion of Apo CIII
# Experimental: The hypolipidaemiant activity of the compounds of the invention result from their ability to reduce the secretion of apo CIII.
# The Hep G2 cell line is derived from a human hepatic carcinoma (ref. ECACC No. 85011430).
# The cells are cultured at 37° C., 5% CO2 in 96-well microtitration plates at a rate of 40 000 cells (200 μl) per well in a DMEM buffer, 10% foetal calf serum, 1% Glutamax+antibiotics, for 24 hours. […] The cells are incubated for 24 hours at 37° C., 5% CO2 and the medium is then removed.
# The amount of apolipoprotein CIII secreted into the medium is measured by means of an assay of ELISA type. Each sample of culture medium is diluted 5-fold in a 100 mM phosphate buffer, 1% BSA. […]
# The optical density is read directly using a spectrophotometer at 492 nm. The amount of Apo CIII is calculated relative to a calibration curve produced using an assayed human serum of Apo CIII and diluted under the same conditions as the Apo CIII contained in the culture medium. […]
# The active substances bring about a reduction in the secretion of Apo CIII into the medium by the adherent cells. The concentration of Apo CIII is measured for each treatment and compared with the control test (no treatment).
# The percentage of inhibition is calculated according to: […]
# (§1) The percentage of inhibition is calculated only for the substances that show no toxicity on the Hep G2 cells.
# Hep G2 cells = experiment: Toxicity on the cells by staining with neutral red; format: cell-based, human; details: for the concentrations studied
# Experimental: In the absence of a chemical treatment, the response of the cells is 100% (0% inhibition). Under the conditions used, the effect of DMSO on the cells is negligible. The toxicity of the chemical substances on the cells is measured by the technique of staining with neutral red.
# as §1
SMILES,IC50 (secretion of apo CIII) [µM],cell toxicity (Hep G2 cells),melting point [°C]
"C1=C(c2ccc(-c3ccccc3)cc2)N2CCc3ccccc3N=C2S1 [Example 4, 3-(biphenyl-4-yl)-5,6-dihydrothiazolo[2,3-b]-1,3-benzodiazepine]",17.4,No cell toxicity is observed,
C1=C(c2ccc(Oc3ccccc3)cc2)N2CCc3ccccc3N=C2S1 [Example 67],,,204 to 205
C1=C(c2ccc3ccccc3c2)N2CCc3ccccc3N=C2S1 [Example 47],,,188.5 to 189.5
"CCOC(=O)c1ccc(C2=CSC3=Nc4ccccc4CCN23)cc1 [Example 36, 3-[4-(ethoxycarbonyl)phenyl]-5,6-dihydro-thiazolo-[2,3-b]-1,3-benzodiazepine]",,,231 to 233
CC1=CSC2=Nc3ccccc3CCN12 [Example 50],,,194 to 196
